Biological target: Phosphatidylinositol 4,5-bisphosphate 3-kinase catalytic subunit alpha isoform (Homo sapiens, UniProt P42336)
Experiment: Filter-Binding-Assay: This PI3Kalpha assay provides an IC50 value indicative of the activity of the compounds to inhibit PI3 kinase alpha activity. Inhibition of PI3 kinase would be expected to be indicative of activity in treating conditions of excessive or anomalous cell proliferation, such as cancers. See also J. A. Engelman, Nature Reviews Cancer, 2009, 9, 550-562; A. Carnero, Expert Opin. Investig. Drugs, 2009, 18, 1265-1277 and P. Liu et al., Nature Reviews Drug Discovery, 2009, 8, 627-64.

Chain of Phosphatidylinositol 4,5-bisphosphate 3-kinase catalytic subunit alpha isoform (P42336 whole entry, canonical isoform): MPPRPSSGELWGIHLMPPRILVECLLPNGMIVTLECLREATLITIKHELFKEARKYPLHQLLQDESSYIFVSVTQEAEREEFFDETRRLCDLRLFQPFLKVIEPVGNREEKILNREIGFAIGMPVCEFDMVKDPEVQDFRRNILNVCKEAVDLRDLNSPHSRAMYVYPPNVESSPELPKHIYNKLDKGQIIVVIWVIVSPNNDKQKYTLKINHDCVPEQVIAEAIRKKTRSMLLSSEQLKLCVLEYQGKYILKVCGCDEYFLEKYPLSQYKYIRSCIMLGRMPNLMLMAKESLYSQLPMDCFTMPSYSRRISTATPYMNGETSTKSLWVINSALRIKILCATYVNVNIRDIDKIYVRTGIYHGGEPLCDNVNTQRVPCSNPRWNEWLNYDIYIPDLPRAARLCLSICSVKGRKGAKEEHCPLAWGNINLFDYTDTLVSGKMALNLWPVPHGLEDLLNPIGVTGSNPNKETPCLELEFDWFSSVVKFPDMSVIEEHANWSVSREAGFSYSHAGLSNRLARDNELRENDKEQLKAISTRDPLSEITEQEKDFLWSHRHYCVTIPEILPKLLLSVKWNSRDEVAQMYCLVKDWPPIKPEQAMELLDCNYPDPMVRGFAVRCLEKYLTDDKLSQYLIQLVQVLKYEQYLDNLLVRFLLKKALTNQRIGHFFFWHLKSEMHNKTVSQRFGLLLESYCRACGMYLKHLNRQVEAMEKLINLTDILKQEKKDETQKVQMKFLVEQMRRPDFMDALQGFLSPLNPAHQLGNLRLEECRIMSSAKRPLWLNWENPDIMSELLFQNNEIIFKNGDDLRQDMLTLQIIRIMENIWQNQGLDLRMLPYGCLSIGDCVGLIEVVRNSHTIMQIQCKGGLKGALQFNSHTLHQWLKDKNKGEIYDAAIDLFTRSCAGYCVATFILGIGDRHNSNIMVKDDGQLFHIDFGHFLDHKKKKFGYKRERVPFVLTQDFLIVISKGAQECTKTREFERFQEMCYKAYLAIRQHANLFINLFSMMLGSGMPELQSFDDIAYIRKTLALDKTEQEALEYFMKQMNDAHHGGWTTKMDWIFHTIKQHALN

IC50	SMILES
0.56 nM	Cc1ncc(C#Cc2c(C)ncnc2N2CCOCC2)cc1NS(=O)(=O)c1cnn(C)c1
0.86 nM	CCc1ncnc(N2CCC(O)CC2)c1C#Cc1cnc(C)c(NS(C)(=O)=O)c1
